# Data from patent US20250197406A1, “INDAZOLES AS HEMATOPOIETIC PROGENITOR KINASE 1 (HPK1) INHIBITORS AND METHODS FOR USING SAME” (1ST Biotherapeutics, Inc., priority 2022, published 2025).
# Where a name gives a salt, the structure may show the parent alone.
# Target: recombinant human HPK1 (Homo sapiens (Human), UniProt Q92918)
# Assay: HPK1 kinase assay (Promega ADP-Glo kinase assay)
# Type: biochemical
# Conditions: In vitro activity against HPK1, 5 ng HPK1, MBP substrate, ATP 25 μM, 30° C. 40 minutes
# Method: HPK1 kinase activity was measured by Promega's ADP-Glo™ kinase assay. In this assay, 5 ng of recombinant human HPK1 (signalchem) is incubated with 5 μL of compounds (0.5% DMSO), 5 μL of MBP (0.5 μg/μl) and 5 μL of ATP (25 μM) in buffer (40 mM Tris, 7.5; 20 mM MgCl2; 0.1 mg/ml BSA; 50 μM DTT.). The assay was started by incubating the reaction mixture in a 96-well plate at 30° C. for 40 minutes. After the incubation, 25 μL ADP-Glo reagent was added and the reaction was incubated at room temperature for 40-min to stop the reaction and degrade residual ATP. The ADP product was then converted to ATP by adding 50 μL per well of detection reagent. Luminescence was detected after 30-min room temperature incubation with the Molecular device I3X plate reader. The IC50 values were calculated from a series of percent inhibition values determined at a range of inhibitor concentration using software routines as implemented in the GraphPad Prism 7 software and SigmaPlot13.0.
# Chain of recombinant human HPK1 (Q92918 whole entry): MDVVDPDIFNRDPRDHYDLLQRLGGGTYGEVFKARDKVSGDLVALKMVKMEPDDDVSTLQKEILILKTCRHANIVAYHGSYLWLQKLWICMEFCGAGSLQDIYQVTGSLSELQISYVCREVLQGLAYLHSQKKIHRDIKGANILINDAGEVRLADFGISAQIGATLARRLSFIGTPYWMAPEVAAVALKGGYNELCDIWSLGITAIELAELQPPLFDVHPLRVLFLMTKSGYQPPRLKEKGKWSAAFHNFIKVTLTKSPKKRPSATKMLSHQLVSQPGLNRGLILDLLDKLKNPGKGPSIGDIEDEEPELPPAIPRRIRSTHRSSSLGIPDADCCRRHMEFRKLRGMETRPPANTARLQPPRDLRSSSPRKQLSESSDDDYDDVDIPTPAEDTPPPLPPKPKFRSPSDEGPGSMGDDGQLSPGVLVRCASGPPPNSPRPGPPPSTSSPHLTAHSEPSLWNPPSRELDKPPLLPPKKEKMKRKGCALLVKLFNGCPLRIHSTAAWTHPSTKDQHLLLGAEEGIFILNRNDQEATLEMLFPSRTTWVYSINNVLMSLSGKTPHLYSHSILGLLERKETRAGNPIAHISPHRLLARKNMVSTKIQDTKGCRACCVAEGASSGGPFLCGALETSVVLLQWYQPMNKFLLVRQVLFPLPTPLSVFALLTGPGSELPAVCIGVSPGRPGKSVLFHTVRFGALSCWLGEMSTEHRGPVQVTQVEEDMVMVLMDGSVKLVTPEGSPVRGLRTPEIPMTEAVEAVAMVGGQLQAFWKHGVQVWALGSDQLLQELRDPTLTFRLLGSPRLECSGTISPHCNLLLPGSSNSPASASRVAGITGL
row,IC50 [nM],Structure (SMILES)
1,< 100,"CC(=O)NC(c1c(F)c(C(F)F)c(-c2cn3cc(NC(=O)[C@@H]4C[C@@H]4F)nc3cn2)c2cn[nH]c12)C1CC1 (stereo partly drawn) [Example 54, (1S,2S)-N-(6-(7-(acetamido(cyclopropyl)methyl)-5-(difluoromethyl)-6-fluoro-1H-indazol-4-yl)imidazo[1,2-a]pyrazin-2-yl)-2-fluorocyclopropane-1-carboxamide]"
2,101 to 500,"CC(N)c1c(F)c(C(F)F)c(-c2cn3cc(NC(=O)[C@@H]4C[C@@H]4F)nc3cn2)c2cn[nH]c12 (stereo partly drawn) [Example 55, (1S,2S)-N-(6-(7-(1-aminoethyl)-5-(difluoromethyl)-6-fluoro-1H-indazol-4-yl)imidazo[1,2-a]pyrazin-2-yl)-2-fluorocyclopropane-1-carboxamide]"
3,< 100,"CC(=O)NC(c1c(F)c(C(F)(F)F)c(-c2cn3cc(NC(=O)[C@@H]4C[C@@H]4F)nc3cn2)c2cn[nH]c12)C1CC1 (stereo partly drawn) [Example 56, (1S,2S)-N-(6-(7-(acetamido(cyclopropyl)methyl)-6-fluoro-5-(trifluoromethyl)-1H-indazol-4-yl)imidazo[1,2-a]pyrazin-2-yl)-2-fluorocyclopropane-1-carboxamide formate]"
4,< 100,"CC(C)Nc1c(F)c(Cl)c(-c2cn3cc(NC(=O)c4ccccc4)nc3cn2)c2cn[nH]c12 [Example 57, N-(6-(5-chloro-6-fluoro-7-(isopropylamino)-1H-indazol-4-yl)imidazo[1,2-a]pyrazin-2-yl)benzamide]"
5,101 to 500,"CC(C)Nc1c(F)c(Cl)c(-c2cn3cc(NC(=O)c4ccccn4)nc3cn2)c2cn[nH]c12 [Example 58, N-(6-(5-chloro-6-fluoro-7-(isopropylamino)-1H-indazol-4-yl)imidazo[1,2-a]pyrazin-2-yl)picolinamide]"
6,< 100,"COC(=O)c1c(F)c(NC(C)C)c2[nH]ncc2c1-c1cn2cc(NC(=O)[C@@H]3C[C@@H]3F)nc2cn1 [Example 59, methyl 6-fluoro-4-(2-((1S,2S)-2-fluorocyclopropane-1-carboxamido)imidazo[1,2-a]pyrazin-6-yl)-7-(isopropylamino)-1H-indazole-5-carboxylate]"
7,< 100,"CC(C)Nc1c(F)c(Cl)c(-c2cn3cc(NC(=O)C4CCC4)nc3cn2)c2cn[nH]c12 [Example 60, N-(6-(5-chloro-6-fluoro-7-(isopropylamino)-1H-indazol-4-yl)imidazo[1,2-a]pyrazin-2-yl)cyclobutanecarboxamide]"
8,< 100,"CCC(=O)Nc1cn2cc(-c3c(Cl)c(F)c(NC(C)C)c4[nH]ncc34)ncc2n1 [Example 61, N-(6-(5-chloro-6-fluoro-7-(isopropylamino)-1H-indazol-4-yl)imidazo[1,2-a]pyrazin-2-yl)propionamide]"
9,< 100,"CC(C)Nc1c(F)c(Cl)c(-c2cn3cc(NC(=O)C(F)(F)F)nc3cn2)c2cn[nH]c12 [Example 66, N-(6-(5-chloro-6-fluoro-7-(isopropylamino)-1H-indazol-4-yl)imidazo[1,2-a]pyrazin-2-yl)-2,2,2-trifluoroacetamide]"
10,< 100,"Cc1c(F)c(C(NC(=O)C2CC2)C2CC2)c2[nH]ncc2c1-c1cn2cc(NC(=O)[C@@H]3C[C@@H]3F)nc2cn1 (stereo partly drawn) [Example 67, (1S,2S)-N-(6-(7-(cyclopropanecarboxamido(cyclopropyl)methyl)-6-fluoro-5-methyl-1H-indazol-4-yl)imidazo[1,2-a]pyrazin-2-yl)-2-fluorocyclopropane-1-carboxamide]"
11,101 to 500,"Cc1c(F)c(C(C)N2C(=O)c3ccccc3C2=O)c2[nH]ncc2c1-c1cn2cc(NC(=O)[C@@H]3C[C@@H]3F)nc2cn1 (stereo partly drawn) [Example 68, (1S,2S)-N-(6-(7-(1-(1,3-dioxoisoindolin-2-yl)ethyl)-6-fluoro-5-methyl-1H-indazol-4-yl)imidazo[1,2-a]pyrazin-2-yl)-2-fluorocyclopropane-1-carboxamide]"
12,< 100,"Cc1c(F)c(C(C)NC(=O)C2CC2)c2[nH]ncc2c1-c1cn2cc(NC(=O)[C@@H]3C[C@@H]3F)nc2cn1 (stereo partly drawn) [Example 69, (1S,2S)-N-(6-(7-(1-(cyclopropanecarboxamido)ethyl)-6-fluoro-5-methyl-1H-indazol-4-yl)imidazo[1,2-a]pyrazin-2-yl)-2-fluorocyclopropane-1-carboxamide]"
13,< 100,"CC(=O)NC(C)c1c(F)c(C)c(-c2cn3cc(NC(=O)[C@@H]4C[C@@H]4F)nc3cn2)c2cn[nH]c12 (stereo partly drawn) [Example 70, (1S,2S)-N-(6-(7-(1-acetamidoethyl)-6-fluoro-5-methyl-1H-indazol-4-yl)imidazo[1,2-a]pyrazin-2-yl)-2-fluorocyclopropane-1-carboxamide]"
14,< 100,"Cc1c(F)c(C(C)NC(=O)C(F)(F)F)c2[nH]ncc2c1-c1cn2cc(NC(=O)[C@@H]3C[C@@H]3F)nc2cn1 (stereo partly drawn) [Example 71, (1S,2S)-2-fluoro-N-(6-(6-fluoro-5-methyl-7-(1-(2,2,2-trifluoroacetamido)ethyl)-1H-indazol-4-yl)imidazo[1,2-a]pyrazin-2-yl)cyclopropane-1-carboxamide]"
15,501 to 1000,"N#Cc1c(F)cc2[nH]ncc2c1-c1cn2cc(NC(=O)[C@@H]3C[C@@H]3F)nc2cn1 [Example 72, (1S,2S)-N-(6-(5-cyano-6-fluoro-1H-indazol-4-yl)imidazo[1,2-a]pyrazin-2-yl)-2-fluorocyclopropane-1-carboxamide]"
16,501 to 1000,"CC(C)Nc1c(F)c(C(=O)O)c(-c2cn3cc(NC(=O)[C@@H]4C[C@@H]4F)nc3cn2)c2cn[nH]c12 [Example 73, 6-fluoro-4-(2-((1S,2S)-2-fluorocyclopropane-1-carboxamido)imidazo[1,2-a]pyrazin-6-yl)-7-(isopropylamino)-1H-indazole-5-carboxylic acid]"
17,< 100,"CC(C)Nc1c(F)c(Cl)c(-c2cn3cc(NC(=O)C4CCNC4)nc3cn2)c2cn[nH]c12 (stereo not drawn) [Example 74, N-(6-(5-chloro-6-fluoro-7-(isopropylamino)-1H-indazol-4-yl)imidazo[1,2-a]pyrazin-2-yl)pyrrolidine-3-carboxamide]"
18,< 100,"CC(NC=O)c1c(F)c(C(F)F)c(-c2cn3cc(NC(=O)[C@@H]4C[C@@H]4F)nc3cn2)c2cn[nH]c12 (stereo partly drawn) [Example 75, (1S,2S)-N-(6-(5-(difluoromethyl)-6-fluoro-7-(1-formamidoethyl)-1H-indazol-4-yl)imidazo[1,2-a]pyrazin-2-yl)-2-fluorocyclopropane-1-carboxamide]"
19,< 100,"CC(NC(=O)C1CC1)c1c(F)c(C(F)F)c(-c2cn3cc(NC(=O)[C@@H]4C[C@@H]4F)nc3cn2)c2cn[nH]c12 (stereo partly drawn) [Example 76, (1S,2S)-N-(6-(7-(1-(cyclopropanecarboxamido)ethyl)-5-(difluoromethyl)-6-fluoro-1H-indazol-4-yl)imidazo[1,2-a]pyrazin-2-yl)-2-fluorocyclopropane-1-carboxamide]"
20,< 100,"O=C(NC(c1c(F)c(C(F)F)c(-c2cn3cc(NC(=O)[C@@H]4C[C@@H]4F)nc3cn2)c2cn[nH]c12)C1CC1)C1CC1 (stereo partly drawn) [Example 77, (1S,2S)-N-(6-(7-(cyclopropanecarboxamido(cyclopropyl)methyl)-5-(difluoromethyl)-6-fluoro-1H-indazol-4-yl)imidazo[1,2-a]pyrazin-2-yl)-2-fluorocyclopropane-1-carboxamide]"
21,< 100,"CC(C)Nc1c(F)c(Cl)c(-c2cn3cc(NC(=O)C4(N)CC4)nc3cn2)c2cn[nH]c12 [Example 78, 1-amino-N-(6-(5-chloro-6-fluoro-7-(isopropylamino)-1H-indazol-4-yl)imidazo[1,2-a]pyrazin-2-yl)cyclopropane-1-carboxamide]"
22,< 100,"CC(C)Nc1c(F)c(Cl)c(-c2cn3cc(NC(=O)[C@H](C)N)nc3cn2)c2cn[nH]c12 [Example 79, (S)-2-amino-N-(6-(5-chloro-6-fluoro-7-(isopropylamino)-1H-indazol-4-yl)imidazo[1,2-a]pyrazin-2-yl)propanamide]"
23,< 100,"CC(C)Nc1c(F)c(Cl)c(-c2cn3cc(NC(=O)CN)nc3cn2)c2cn[nH]c12 [Example 80, 2-amino-N-(6-(5-chloro-6-fluoro-7-(isopropylamino)-1H-indazol-4-yl)imidazo[1,2-a]pyrazin-2-yl)acetamide]"
24,< 100,"CC(C)Nc1c(F)c(Cl)c(-c2cn3cc(NC(=O)C(C)C)nc3cn2)c2cn[nH]c12 [Example 81, N-(6-(5-chloro-6-fluoro-7-(isopropylamino)-1H-indazol-4-yl)imidazo[1,2-a]pyrazin-2-yl)isobutyramide]"
25,101 to 500,"CC(C)Nc1c(F)c(Cl)c(-c2cn3cc(NC(=O)C(C)(C)C)nc3cn2)c2cn[nH]c12 [Example 82, N-(6-(5-chloro-6-fluoro-7-(isopropylamino)-1H-indazol-4-yl)imidazo[1,2-a]pyrazin-2-yl)pivalamide]"
26,< 100,"CC(=O)Nc1cn2cc(-c3c(C(F)(F)F)c(F)c(NC(C)C)c4[nH]ncc34)ncc2n1 [Example 83, N-(6-(6-fluoro-7-(isopropylamino)-5-(trifluoromethyl)-1H-indazol-4-yl)imidazo[1,2-a]pyrazin-2-yl)acetamide]"
27,< 100,"CC(C)Nc1c(F)c(Cl)c(-c2cn3cc(NC(=O)N4CCOCC4)nc3cn2)c2cn[nH]c12 [Example 84, N-(6-(5-chloro-6-fluoro-7-(isopropylamino)-1H-indazol-4-yl)imidazo[1,2-a]pyrazin-2-yl)morpholine-4-carboxamide]"
